Assay results taken from US11285093B2, “Cosmetic uses of swertiamarin” (LUCAS MEYER COSMETICS, priority 2014, dated 2022).

What was measured:
[1] = test system: keratinocyte growth factor (KGF); test: KGF quantification by ELISA in culture medium of human adipocytes; type: cell-based; conditions: 0.0075% by weight of swertiamarin, 15 hours, normal human adipocytes, vs DMSO control
Procedure: A stock solution at 10% by weight of swertiamarin in DMSO was prepared. This solution was then diluted in the culture medium so as to obtain a final concentration of 0.0075% by weight of swertiamarin.
A culture of normal human adipocytes, obtained from adipocytes sampled by abdominal plastic surgery in a person, was incubated for 15 hours with the culture medium containing swertiamarin. As a negative control, a culture of adipocytes incubated for 15 hours with a culture medium without any swertiamarin but containing the same amount of DMSO was used.
At the end of the incubation, the amount of KGF was quantified in each culture medium by an ELISA test. The statistical significance of the differences between the “control” groups and the “test groups” was evaluated by variance analysis (One way Anova) followed by the Holm Sida test (p*<0.05).

fibronectin = test: Fibronectin synthesis by normal human fibroblasts of the dermis (NHDF), ELISA; type: cell-based; conditions: 24 h or 48 h
Procedure: The applied test was based on the synthesis of fibronectin induced by TGF-β by cells of normal human fibroblasts of the dermis (NHDF) in a monolayer culture. The culture was produced by using as a culture medium DMEM (Eurobio, CMODME70-08) containing 10% of fetal calf serum (Eurobio, CVFSV00-0U), 1% of antibiotics (penicillin/streptomycin, Eurobio, CABPES01-OU) and 1% of L-glutamine (Eurobio, CSTGLUOO-OU), at a temperature of 37° C. under 5% of CO2 and 95% of humidity.
The cells were then sown, in the presence of complete DMEM, in microplates in an amount of 2.5*10^4 cells per well and then incubated at a temperature of 37° C. under 5% of CO2 and 95% of humidity. The culture medium was replaced after 24 hours in order to bring the cells to a quiescent state.
Next, the cells were incubated in the presence of TGF-β or swertiamarin for 24 h or 48 h. The cell supernatants were then collected in order to quantify fibronectin by an ELISA test (BMS028, Ebiosciences). The cell viability level was also determined by the standard MTT test. As a control, cells were incubated under the same conditions but in the absence of TGF-β and of swertiamarin (control).
The results are expressed as a percentage of the amount of fibronectin produced per mL relative to the amount of fibronectin produced by the group of control experiments.

human keratinocytes = test: Scratch assay on monolayer culture of human keratinocytes; type: cell-based; conditions: 72 hours
Procedure: Normal keratinocytes surgically sampled in a person were cultivated so as to obtain a monolayer culture of keratinocytes.
When confluence was attained, a lesion (“scratch”) was carried out in each cell culture so as to locally remove an equivalent amount of keratinocytes.
Each culture of keratinocytes was then incubated at 37° C. in a humid atmosphere and in the presence of 5% of CO2, in the presence of an adipocyte culture medium conditioned with swertiamarin (0.0025%; 0.005%; 0.0075% by weight), for 72 hours. The swertiamarin was introduced into the adipocyte culture medium by dilution of a stock solution at 10% in DMSO. The final amount of DMSO in the culture media is 0.15%. […]
The surface corresponding to the “lesion” (i.e. to the area where the keratinocytes were removed) was measured before (t=0) and after incubation for each cell culture from photographs obtained by optical microscopy by using the software package Image J.
The results were expressed as a percentage of re-colonized surface relative to the surface observed at t=0.
The statistical significance of the differences obtained between the groups “DMSO Control” and the groups “TGF-β Controls” was evaluated by using the t-test (***: p<0.001). […]

Procedure for human skin explants: 21 skin explants with a diameter of 10 mm were prepared from these samples, among which 12 are skin explants without any adipose tissue (epidermis+dermis explant) and 9 are full skin explants (epidermis+dermis+hypodermis). The explants are maintained alive in a BEM medium at 37° C. in the presence of a humid atmosphere with 5% of CO2. The skin explants were distributed into three groups: • Group 1: a cream containing swertiamarin (SWT) in an amount of 0.025% was applied at days 0, 1, 2, 3, 6 and 7 of the incubation, to the surface of the skin explants by means of a spatula (1 μl in the morning and 1 μl in the evening), • Group 2: a placebo cream (free of swertiamarin) was applied on days 0, 1, 2, 3, 6 and 7 of the incubation, to the surface of the skin explants by means of a spatula (1 μl in the mornings and 1 μl in the evenings), • Group 3: this control group was maintained alive without any treatment (without application of a placebo cream or of cream based on swertiamarin).
On day 9, the skin explants are recovered, chemically bound in a formol solution for 24 hours, dehydrated, impregnated with paraffin and then infiltrated with resin according to the SOP H-53 protocol. Fine cuts are then made in each explant and observed by optical microscopy after staining.

| Substance | increase in the average amount of KGF in the culture medium [1] | increase of the amount of fibronectin vs control (fibronectin; 0.005% swertiamarin) | increase of the surface area re-colonized by the keratinocytes vs DMSO Control (human keratinocytes; adipocyte culture medium conditioned with 0.0025% swertiamarin) | morphological alteration of treated skin explants (human skin explants) | production of fibronectin vs control (fibronectin; TGF-β) | cell re-colonization (re-colonized surface) vs DMSO Control (human keratinocytes; TGF-β 10 ng/ml, p<0.001) |
| --- | --- | --- | --- | --- | --- | --- |
| Swertiamarin | about 16.4% | more than 171% | +64.6% | do not exhibit any notable morphological alteration | – | – |
| TGF-β [reference compound] | – | – | – | – | +64% | +124.1% |
